Experimental findings from PubChem BioAssay (NCI) are described below.

Among the test systems are DMS 273 small cell lung; MOLT-4 leukemia; LOX IMVI melanoma; NCI-H226 lung; UACC-257 melanoma; HOP-62 NSCLC; HCC-2998 colon; HOP-92 NSCLC; HS 578T breast; DU-145 prostate.
Common to all, as to assay: NCI tumour cell line growth inhibition, 48 h

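Growth conditions: 96-well plates. Treatment: test compound, 48 hours, 5 concentrations. Analysis: linear interpolation between bracketing concentrations; unreached endpoints set to highest concentration. Abbreviation: GI50, concentration required for 50% inhibition of growth. TGI: concentration producing complete growth inhibition.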

As for `CCOC(=O)C1CCn2c(nc3c2c(=O)n(C)c(=O)n3C)S1` (stereo not drawn), the TGI with DMS 273 small cell lung, in the assay on MOLT-4 leukemia, with LOX IMVI melanoma, in the assay with NCI-H226 lung, in the assay on UACC-257 melanoma and in the assay on HOP-62 NSCLC was greater than 100 µM in each case.

`C/C(=N\NC(=O)c1cccnc1)c1cccc(/C(C)=N/NC(=O)c2cccnc2)n1`: the GI50 in the assay on DMS 273 small cell lung was 5.02 µM; with MOLT-4 leukemia, 2.45 µM; in the assay on HCC-2998 colon it was 2.17 µM; with HOP-92 NSCLC, 7.41 µM. In addition, the TGI in the assay with DMS 273 small cell lung is 25.5 µM; in the assay on MOLT-4 leukemia, 12 µM; in the assay on HCC-2998 colon, greater than 100 µM; in the assay with LOX IMVI melanoma, greater than 100 µM; with UACC-257 melanoma it was 35.4 µM; in the assay with HOP-92 NSCLC, 59.1 µM.

Regarding `CC(Sc1ccccc1)C(CO)(CO)[N+](=O)[O-]` (stereo not drawn), the TGI in the assay with DMS 273 small cell lung is greater than 100 µM; with MOLT-4 leukemia, 19.3 µM; in the assay with HCC-2998 colon, 31.5 µM; with LOX IMVI melanoma, 28.2 µM; in the assay with NCI-H226 lung it was 33 µM; in the assay on UACC-257 melanoma, 30.2 µM. The same molecule gave a TGI in the assay with HOP-62 NSCLC of 35.5 µM.

Take `COC(=O)C1C(C)N1C` (stereo not drawn): the TGI with DMS 273 small cell lung, in the assay with MOLT-4 leukemia, with HCC-2998 colon, in the assay on LOX IMVI melanoma, with NCI-H226 lung and in the assay with UACC-257 melanoma was greater than 100 µM in each case. Besides, the TGI with HOP-62 NSCLC and with HOP-92 NSCLC was greater than 100 µM each time.

As to `CC(=O)N(C)c1ccc2c(ccc[n+]2[O-])c1[N+](=O)[O-]`, the TGI in the assay with DMS 273 small cell lung, with MOLT-4 leukemia, in the assay on HCC-2998 colon, with LOX IMVI melanoma, in the assay with NCI-H226 lung and with UACC-257 melanoma was greater than 100 µM each time. The same molecule had a TGI with HOP-62 NSCLC greater than 100 µM.

`C[C@]12CC[C@@H]3c4ccccc4CC[C@H]3[C@@H]1CC[C@@H]2O`: the TGI in the assay with DMS 273 small cell lung, in the assay on MOLT-4 leukemia, in the assay on HCC-2998 colon, in the assay on LOX IMVI melanoma, with UACC-257 melanoma and with HOP-62 NSCLC was greater than 100 µM in each case.

In the case of `CN(CCCNC(=O)c1cn(C)c2c1ccc1cc(Cl)c(Cl)cc12)CCCNC(=O)c1cn(C)c2c1ccc1cc(Cl)c(Cl)cc12`, the TGI in the assay with MOLT-4 leukemia was 30.3 µM; in the assay on HCC-2998 colon, 18.6 µM; with HS 578T breast it was 27.6 µM; in the assay with LOX IMVI melanoma it was greater than 43.3 µM; in the assay on NCI-H226 lung it was 47.9 µM; in the assay with UACC-257 melanoma, 52.4 µM. Moreover, the results for the TGI in the assay with HOP-62 NSCLC, in the assay on DU-145 prostate and in the assay with HOP-92 NSCLC were greater than 57.7 µM, 31.6 µM and 33.4 µM, respectively.
